Counter-ions that a name gives are not always drawn.

The assay deals with T1, methionine aminopeptidase-2 (MetAP2) (Homo sapiens, UniProt P50579).
T1 construct: made in house; host or cells: insect cells, baculovirus system (secreted, purified from culture supernatant)
As to the kind of experiment: Inhibition of MetAP2 enzyme activity (96-well, Met-Ala-Ser substrate, L-amino acid oxidase/peroxidase/ortho-dianisidine, 450 nm). Particulars: pH 7.4, Met-Ala-Ser substrate, 20 minutes. The format is biochemical.

[1] abbreviates: IC50, recombinant MetAP2 4 μg/mL.

T1 sequence (P50579 whole entry): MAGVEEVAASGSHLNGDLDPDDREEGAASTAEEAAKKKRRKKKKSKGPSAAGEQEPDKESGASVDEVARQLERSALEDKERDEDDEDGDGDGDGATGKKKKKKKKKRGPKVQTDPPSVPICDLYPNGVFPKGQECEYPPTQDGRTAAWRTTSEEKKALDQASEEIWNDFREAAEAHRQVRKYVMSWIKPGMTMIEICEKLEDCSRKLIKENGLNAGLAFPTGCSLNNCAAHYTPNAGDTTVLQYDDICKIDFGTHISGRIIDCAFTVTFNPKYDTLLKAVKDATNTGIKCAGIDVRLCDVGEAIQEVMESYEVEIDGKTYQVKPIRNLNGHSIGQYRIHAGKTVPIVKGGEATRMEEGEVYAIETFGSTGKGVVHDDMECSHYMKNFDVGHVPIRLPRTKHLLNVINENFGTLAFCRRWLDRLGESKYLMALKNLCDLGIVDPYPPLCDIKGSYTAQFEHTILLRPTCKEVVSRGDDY

On to `CCOC(=O)CCNC(=O)C(O)[C@H](N)CCSCC` (stereo partly drawn) [Example 14, (2RS,3R)-N-(3-(carboethoxy)ethyl)-3-amino-2-hydroxy-5-(ethylthio)pentanamide hydrochloride], for which the IC50 (as a rule, the concentration that gives 50% inhibition) under setting [1] came to 0.72 µM. For the compound `CCSCC[C@@H](N)C(O)C(=O)NCCC(=O)OCc1ccccc1` (stereo partly drawn) [Example 15, (2RS,3R)-N-(3-(carbobenzyloxy)ethyl)-3-amino-2-hydroxy-5-(ethylthio)pentanamide hydrochloride], under setting [1], the 50% inhibitory concentration (IC50) amounted to 0.72 µM.

With `CCOC(=O)CCNC(=O)C(O)[C@H](N)CC1CCCCC1` (stereo partly drawn) [Example 24, (2RS,3R)-N-(2-(carboethoxy)ethyl)-3-amino-2-hydroxy-4-cyclohexyl-butanamidehydrochloride], the IC50 under setting [1] was 1 µM.

Consider `CCOC(=O)[C@H](C)NC(=O)C(O)[C@H](N)Cc1ccccc1` (stereo partly drawn) [Example 26, (2RS,3R,1'S)-N-((1-ethoxycarbonyl)ethyl)-3-amino-2-hydroxy-4-phenyl-butanamide hydrochloride], for which, under setting [1], the IC50 was 4.7 µM.

Turning to `COc1ccc(CCNC(=O)C(O)[C@H](N)CCSC)cc1` (stereo partly drawn) [Example 27, (2RS,3R)-3-amino-2-hydroxy-N-(4-methoxyphenethyl)-5-(methylthio)pentanamidehydrochloride], under setting [1], the IC50 came out at 1.7 µM. The same measure, in the same setting: the result for `N[C@H](CC1CCCCC1)C(O)C(=O)NCCCCc1ccccc1` (stereo partly shown) [Example 30, hydrochloride] reads 1.1 µM; that for `CSCC[C@@H](N)C(O)C(=O)N(C)CCc1ccccc1` (stereo partly drawn) [Example 33, (2RS,3R)-3-amino-2-hydroxy-N-methyl-5-(methylthio)-N-phenethylpentanaamide hydrochloride], 2.5 µM; that for `CCSCC[C@@H](N)C(O)C(=O)N[C@@H](C)C(=O)O` (stereo partly shown) [Example 34, hydrochloride], 3.1 µM. On the same count and under the same terms, the same measure for `CCOC(=O)C(C)(C)NC(=O)C(O)[C@H](N)CCSCC` (stereo partly shown) [Example 35, hydrochloride]: 0.11 µM. Still for that read-out and setting: the result for `CCOC(=O)[C@H](CO)NC(=O)C(O)[C@H](N)CCSCC` (stereo partly drawn) [Example 36, (2RS,3R)-N-((1-(2-hydroxy)-1-ethoxycarboxyethyl) 3-amino-2-hydroxy-4-ethylthio)pentanamide hydrochloride] reads 0.14 µM; that for `CCOC(=O)CN(C)C(=O)C(O)[C@H](N)CCSCC` (stereo partly shown) [Example 39, hydrochloride], 5.1 µM. Regarding `CCSCC[C@@H](NC(=O)CO)C(O)C(=O)NCCCCc1ccccc1` (stereo partly shown) [Example 40, hydrochloride], the IC50 under setting [1] came out at 81 µM. Turning to `CCSCC[C@@H](NCC(=O)OC)C(O)C(=O)NCCCCc1ccccc1` (stereo partly drawn) [Example 44, (2RS,3R)-N-((Phenylbutyryl)-3-methoxycarbonylmethylamino-2-hydroxy-4-ethylthio)pentanamide hydrochloride], under setting [1], the IC50 was 13 µM. Turning to `CCOC(=O)[C@H](CO)NC(=O)C(O)[C@H](N)CC1CCCCC1` (stereo partly drawn) [Example 46, (2RS,3R,1'S)-N-((2-hydroxy-1-ethoxycarbonylethyl)-3-amino-2-hydroxy-4-cyclohexyl)butanamide hydrochloride], the concentration for half-maximal inhibition (IC50) under setting [1] stood at 1.1 µM. Still for that read-out and setting: the same measure for `CC(=O)OC[C@H](C)NC(=O)C(O)[C@H](N)CC1CCCCC1` (stereo partly shown) [Example 47]: 1.5 µM.

Take `CCC(=O)OC[C@H](C)NC(=O)C(O)[C@H](N)CC1CCCCC1` (stereo partly drawn) [Example 48, (2RS,3R,2'S)-N-((2-propionyloxypropyl)-3-amino-b2-hydroxy-$-cyclohexyl)butanamide hydrochloride]: the IC50 under setting [1] was 1.5 µM.

Regarding `C[C@@H](COC(=O)c1ccccc1)NC(=O)C(O)[C@H](N)CC1CCCCC1` (stereo partly drawn) [Example 49, (2RS, 3R,2'S)-N-((2-benzoyloxypropyl)-3-amino-2-hydroxy-4-cyclohexyl)butanamide hydrochloride], under setting [1], the IC50 is 2.2 µM.

As to `C[C@H](COC(=O)c1ccccc1)NC(=O)C(O)[C@H](N)CC1CCCCC1` (stereo partly shown) [Example 50, hydrochloride], the half-maximal inhibitory concentration (IC50) under setting [1] was determined as 3.7 µM.

On to `CCC(=O)OC[C@@H](C)NC(=O)C(O)[C@H](N)CC1CCCCC1` (stereo partly shown) [Example 51, hydrochloride], for which, under setting [1], the IC50 came out at 5 µM. For the compound `CC(=O)OC[C@@H](C)NC(=O)C(O)[C@H](N)CC1CCCCC1` (stereo partly drawn) [Example 52, (2RS,3R,2'R)-N-((2-acetoxypropyl)-3-amino-2-hydroxy-4-cyclohexyl)butanamidehydrochloride], under setting [1], the IC50 is 6.1 µM.

Regarding `C[C@H](NC(=O)C(O)[C@H](N)CC1CCCCC1)C(=O)OCc1ccccc1` (stereo partly drawn) [Example 53, (2RS,3R,1'S)-N-((1-benzyloxycarbonylethyl)-3-amino-2hydroxy-$-cyclohexyl)butanamide hydrochloride], the IC50 under setting [1] stood at 1.8 µM.

With `CCOC(=O)c1csc([C@H](C)NC(=O)C(O)[C@H](N)CC2CCCCC2)n1` (stereo partly drawn) [Example 54, (2RS,3R,1'-S)-N-(4-ethoxycarbonyl-2-(1'-aminoethyl)thizole)-3-amino-2-hydroxy-4-cyclohexyl)butanamide hydrochloride], under setting [1], the IC50 came to 2.6 µM.

Take `CN(C)c1cccc2c(S(=O)(=O)NCCCCCNC(=O)C(O)[C@H](N)CC3CCCCC3)cccc12` (stereo partly drawn) [Example 55, (2RS,3R) N-(monodansylcadaverenyl-3-amino-2-hydroxy-4-cyclohexyl)butanamidedihydrochloride]: under setting [1], the concentration for half-maximal inhibition (IC50) came to 2.7 µM. `Cc1ncc([N+](=O)[O-])n1CCNC(=O)C(O)[C@H](N)CC1CCCCC1` (stereo partly drawn) [Example 56, (2RS,3R) N-(2-methyl-5-nitroimidazole-ethyl) 3-amino-2-hydroxy-4-cyclohexyl)butanamide dihydrochloride]: the half-inhibitory concentration (IC50) under setting [1] stood at 12 µM. Turning to `N[C@H](CC1CCCCC1)C(O)C(=O)NCCNc1ccc([N+](=O)[O-])cn1` (stereo partly drawn) [Example 57, (2RS,3R) N-(5-nitropyridyl-2-aminoethyl) 3-amino-2-hydroxy-4-cyclohexyl)butanamide dihydrochloride], under setting [1], the IC50 came to 3.1 µM. As for `COc1ccc2[nH]cc(CCNC(=O)C(O)[C@H](N)CC3CCCCC3)c2c1` (stereo partly shown) [Example 58], under setting [1], the IC50 was 3.5 µM. On the same count and under the same terms, the result for `COc1cc(CCNC(=O)C(O)[C@H](N)CC2CCCCC2)ccc1O` (stereo partly shown) [Example 59] reads 1.5 µM; that for `N[C@H](CC1CCCCC1)C(O)C(=O)NCc1nc2ccccc2[nH]1` (stereo partly drawn) [Example 60, (2RS,3R) N-(2-aminomethylbenzimidazolyl) 3-amino-2-hydroxy-4-cyclohexyl)butanamide hydrochloride], 18 µM; that for `Cc1ncc([N+](=O)[O-])n1CCNC(=O)[C@H](C)NC(=O)C(O)[C@H](N)CC1CCCCC1` (stereo partly drawn) [Example 61, ((2RS,3R)-3-amino-2-hydroxy-4-cyclohexyl)butanoyl-L-alanyl-(2-methyl-5-nitroimidazolyl-ethyl)amide hydrochloride], 13 µM.

For the compound `C[C@H](NC(=O)C(O)[C@H](N)CC1CCCCC1)C(=O)NCCNc1ccc([N+](=O)[O-])cn1` (stereo partly drawn) [Example 62, ((2RS,3R)-3-amino-2-hydroxy-4-cyclohexyl)butanoyl-L-alanyl-(5-nitropyridylaminoethyl)amide dihydrochloride], the 50% inhibitory concentration (IC50) under setting [1] was 7.6 µM. Still for that read-out and setting: the same measure for `CCOC(=O)C1CCN(C(=O)[C@H](C)NC(=O)C(O)[C@H](N)CC2CCCCC2)CC1` (stereo partly drawn) [Example 63, ((2RS,3R)-3-amino-2-hydroxy-4-cyclohexyl)butanoyl-L-alanyl-(ethylisonipecotate)amide hydrochloride]: 20 µM; for `C[C@H](NC(=O)C(O)[C@H](N)CC1CCCCC1)C(=O)NCCCN1CCCC1=O` (stereo partly drawn) [Example 64, ((b 2RS,3R)-3-amino-2-hydroxy-4-cyclohexyl)butanoyl-L-alanyl-(2-pyrrolidinopropyl)amide hydrochloride]: 19 µM. In the case of `COc1ccc2[nH]cc(CCNC(=O)[C@H](C)NC(=O)C(O)[C@H](N)CC3CCCCC3)c2c1` (stereo partly drawn) [Example 65, ((2RS,3R)-3-amiono-2-hydroxy-4-cyclohexyl)butanoyl-L-alanyl-(5-methoxytryptamine)amide hydrochloride], the IC50 (recombinant MetAP2 4 μg/mL) is 5.6 µM.

In the case of `COc1cc(CCNC(=O)[C@H](C)NC(=O)C(O)[C@H](N)CC2CCCCC2)ccc1O` (stereo partly drawn) [Example 66, ((2RS,3R)-3-amino-2-hydroxy-4-cyclohexyl)butanoyl-L-alanyl-(3-O-methoxydopamine)amide hydrochloride], the IC50 under setting [1] turned out to be 10 µM.

Regarding `C[C@H](NC(=O)C(O)[C@H](N)CC1CCCCC1)C(=O)NCc1nc2ccccc2[nH]1` (stereo partly drawn) [Example 67, ((2RS,3R)-3-amino-2-hydroxy-4-cyclohexyl)butanoyl-L-alanyl-(2-benzimidazolemethyl)amide hydrochloride], the IC50 under setting [1] worked out at 13 µM. On the same count and under the same terms, the result for `C[C@H](NC(=O)C(O)[C@H](N)CC1CCCCC1)C(=O)Nc1cc(-c2ccccc2)[nH]n1` (stereo partly drawn) [Example 68, ((2RS,3R)-3-amino-2-hydroxy-4-cyclohexyl)butanoyl-L-alanyl-(5-phenyl-pyrazole-3)amide hydrochloride] reads 3.8 µM.

In the case of `C[C@H](NC(=O)C(O)[C@H](N)CC1CCCCC1)C(=O)Nc1cc([N+](=O)[O-])ccc1O` (stereo partly drawn) [Example 69, ((2RS,3R)-3-amino-2-hydroxy-4-cyclohexyl)butanoyl-L-alanyl-(2-hydroxy-5-nitrophen-1-yl)amide hydrochloride], under setting [1], the 50% inhibitory concentration (IC50) amounted to 5.3 µM. For the compound `C[C@H](NC(=O)C(O)[C@H](N)CC1CCCCC1)C(=O)Nc1ncc(Br)s1` (stereo partly drawn) [Example 70, ((2RS,3R)-3-amino-2-hydroxy-4-cyclohexyl)butanoyl-L-alanyl-(5-bromothizole-2)amide hydrochloride], the IC50 under setting [1] was 5.4 µM. Regarding `C[C@H](NC(=O)C(O)[C@H](N)CC1CCCCC1)C(=O)Nc1ccc([N+](=O)[O-])cc1O` (stereo partly drawn) [Example 71, ((2RS,3R)-3-amino-2-hydroxy-4-cyclohexyl)butanoyl-L-alanyl-(4-nitro-2-hydroxyphen-1-yl)amide hydrochloride], the concentration for half-maximal inhibition (IC50) under setting [1] is 12 µM.

For `CCn1nccc1NC(=O)[C@H](C)NC(=O)C(O)[C@H](N)CC1CCCCC1` (stereo partly drawn) [Example 72, ((2RS,3R)-3-amino-2-hydroxy-4-cyclohexyl)butanoylL-alanyl-(1-ethylpyrazole)amide hydrochloride], under setting [1], the IC50 was 9.2 µM.

The values are drawn from US6242494A, “Substituted β-amino acid inhibitors of methionine aminopeptidase-2” (Abbott Laboratories, priority 1999, dated 2001).
